From patent US20260325533A1, “CDK INHIBITOR COMPOUNDS” (ALEKSIA THERAPEUTICS, INC., priority 2023, published 2026)
Read-outs that look alike come from different tables or passages of the source. Blank lines part the entries; values can stand above or below the compound they belong to.

Legend:
Assay type in all cases: biochemical
CDK2/CCNE1 = CDK2/CCNE1 (Homo sapiens, UniProt P24941); assay: CDK2 homogeneous time-resolved fluorescence (HTRF) kinase assay; settings: CDK2/CCNE
Procedure, shortened: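 IC50 derived from 11-point, half-log dilutions (usually top 10 μM) of compound, 1% DMSO. Kinase (3 nM CDK2/CCNE1) was preincubated with compound 20 min, then phosphorylated 50 nM ULight-4E-BP1 peptide at 1 mM ATP for 60 min, 23 °C. Europium-antibody TR-FRET read after EDTA stop.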

CDK1/CCNB1 = CDK1/CCNB1 (Homo sapiens, UniProt P06493); assay: CDK1 homogeneous time-resolved fluorescence (HTRF) kinase assay; settings: CDK1/CCNB
Sequence of CDK1/CCNB1 (P06493 whole entry): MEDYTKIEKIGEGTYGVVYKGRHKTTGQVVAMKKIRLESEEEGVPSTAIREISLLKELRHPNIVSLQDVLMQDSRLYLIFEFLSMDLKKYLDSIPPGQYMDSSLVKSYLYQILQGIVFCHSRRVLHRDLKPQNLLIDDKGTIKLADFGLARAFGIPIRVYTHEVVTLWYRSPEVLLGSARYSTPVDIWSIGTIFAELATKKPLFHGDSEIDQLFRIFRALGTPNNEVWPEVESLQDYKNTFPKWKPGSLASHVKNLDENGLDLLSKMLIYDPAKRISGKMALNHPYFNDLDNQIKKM
Sequence of CDK1/CCNB1 (P14635 whole entry partner): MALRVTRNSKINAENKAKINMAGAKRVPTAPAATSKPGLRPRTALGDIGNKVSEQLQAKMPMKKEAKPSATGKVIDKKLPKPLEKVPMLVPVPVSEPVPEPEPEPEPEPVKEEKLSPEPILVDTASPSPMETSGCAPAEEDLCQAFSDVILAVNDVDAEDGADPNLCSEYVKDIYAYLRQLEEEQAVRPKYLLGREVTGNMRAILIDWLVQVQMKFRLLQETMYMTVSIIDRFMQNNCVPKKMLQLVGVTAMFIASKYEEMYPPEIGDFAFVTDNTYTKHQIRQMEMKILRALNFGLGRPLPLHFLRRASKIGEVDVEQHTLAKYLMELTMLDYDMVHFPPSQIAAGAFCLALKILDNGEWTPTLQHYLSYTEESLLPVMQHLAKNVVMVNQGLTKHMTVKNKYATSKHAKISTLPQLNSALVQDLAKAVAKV
Procedure, shortened: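 Kinase activity is measured as Lance signal (665 nm, or 665/615 nm ratio) from europium-labelled anti-phospho-Thr37/46 antibody binding ULight-4E-BP1 peptide. Reactions contain 0.5 nM enzyme, 1 mM ATP, 1% DMSO and run 60 min at 23 °C before EDTA quench.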

CDK6/CCND1 = CDK6/CCND1 (Homo sapiens, UniProt Q00534); assay: CDK6 homogeneous time-resolved fluorescence (HTRF) kinase assay; settings: CDK6/CCND
Sequence of CDK6/CCND1 (Q00534 whole entry): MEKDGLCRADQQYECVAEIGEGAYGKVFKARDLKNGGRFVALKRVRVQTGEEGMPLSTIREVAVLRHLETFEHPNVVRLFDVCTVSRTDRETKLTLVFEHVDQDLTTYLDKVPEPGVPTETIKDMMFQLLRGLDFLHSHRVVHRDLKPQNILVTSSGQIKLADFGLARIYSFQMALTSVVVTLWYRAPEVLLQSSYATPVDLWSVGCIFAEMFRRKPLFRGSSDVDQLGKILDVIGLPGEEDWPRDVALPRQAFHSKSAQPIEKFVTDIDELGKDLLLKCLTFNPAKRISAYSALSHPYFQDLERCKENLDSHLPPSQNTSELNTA
Sequence of CDK6/CCND1 (P24385 whole entry partner): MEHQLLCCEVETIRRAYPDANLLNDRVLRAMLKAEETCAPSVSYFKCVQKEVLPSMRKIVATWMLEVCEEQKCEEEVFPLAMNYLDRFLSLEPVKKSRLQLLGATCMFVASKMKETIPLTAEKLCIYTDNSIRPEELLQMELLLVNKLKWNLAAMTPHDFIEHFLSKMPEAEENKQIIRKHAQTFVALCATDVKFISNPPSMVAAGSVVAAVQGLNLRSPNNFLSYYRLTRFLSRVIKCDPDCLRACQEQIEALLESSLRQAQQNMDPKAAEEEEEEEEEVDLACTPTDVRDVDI
Description: (§1) A CDK homogeneous time-resolved fluorescence (HTRF) assay was used to assess the potency of the compounds described herein.
(§2) To an untreated 384-well microtiter plate (ProxiPlate) was added 100 nL 100×test compound in DMSO and 5 μL 2×CDK enzyme in assay buffer (50 mM HEPES, 1 mM EGTA, 10 mM MgCl2, 0.01% Tween 20, 2 mM DTT). The plate was centrifuged at 800 RPM for 1 min then incubated for 20 min at 23 °C. 2.5 μL per well of 4×ATP and 2.5 μL 4×ULight™-eIF4E-binding protein 1 (Thr37/46) Peptide substrate were added to all wells. After addition, the plates were centrifuged at 800 RPM for 1 min. The plates were incubated at 23 °C for 60 min. 5 μL per well 4×EDTA solution were added to each well to stop the reaction. 5 μL 4×LANCE Ultra Europium-anti-phospho-eIF4E-binding protein 1 (Thr37/46) antibody were added to each well and the plate was centrifuged for 1 min at 800 RPM. The plate was incubated for 60 min at 23 °C. Fluorescence was read at 340 nm excitation and 665 nm emission on an EnVision 2105 fluorescence reader. The final concentrations of reagents in the activity assay were 1 nM CDK6/CCND1, 1 mM ATP, 50 nM ULight™-eIF4E-binding protein 1 (Thr37/46) Peptide substrate, 1% DMSO, 10 mM EDTA, and 2 nM LANCE Ultra Europium-anti-phospho-eIF4E-binding protein 1 (Thr37/46).
(§3) Dose-response titrations were conducted by using an 11-point, half-logarithmic serial dilution scheme typically starting at 10 μM. Signals were reported as fluorescence units at 665 nm or the ratio of fluorescence units at 665 nm/fluorescence units at 615 nm. Signals are referred to below as “Lance signals”.
(§4) Using this assay, the IC50 values of example compounds were determined. Table 3 illustrates the IC50 for various Example compounds of Formula IA. Table 4 illustrates the IC50 for various other Example compounds of Formula I. ND=not determined.

CDK4/CCND3 = CDK4/CCND3 (Homo sapiens, UniProt P11802); assay: CDK4 homogeneous time-resolved fluorescence (HTRF) kinase assay; settings: CDK4/CCND
Sequence of CDK4/CCND3 (P11802 whole entry): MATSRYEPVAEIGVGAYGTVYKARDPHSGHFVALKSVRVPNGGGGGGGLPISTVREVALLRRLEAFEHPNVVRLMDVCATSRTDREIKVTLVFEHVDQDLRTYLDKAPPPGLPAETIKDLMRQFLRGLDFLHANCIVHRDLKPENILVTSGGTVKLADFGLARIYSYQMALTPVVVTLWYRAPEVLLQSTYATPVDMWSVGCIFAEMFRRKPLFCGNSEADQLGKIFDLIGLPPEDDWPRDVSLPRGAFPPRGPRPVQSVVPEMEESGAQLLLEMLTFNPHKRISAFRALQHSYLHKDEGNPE
Sequence of CDK4/CCND3 (P30281 whole entry partner): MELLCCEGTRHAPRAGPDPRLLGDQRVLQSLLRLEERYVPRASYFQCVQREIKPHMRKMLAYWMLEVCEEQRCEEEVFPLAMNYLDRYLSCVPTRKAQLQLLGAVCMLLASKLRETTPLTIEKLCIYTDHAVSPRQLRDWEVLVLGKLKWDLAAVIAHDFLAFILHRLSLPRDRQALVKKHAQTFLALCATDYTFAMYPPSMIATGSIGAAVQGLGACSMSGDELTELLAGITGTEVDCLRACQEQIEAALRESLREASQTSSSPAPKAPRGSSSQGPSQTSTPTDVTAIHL
Description: as §1
as §2, with “were 1.5” for “were 1”, “nM CDK4/CCND3,” for “nM CDK6/CCND1,”
as §3, §4

[1] = x = IC50 25-250 nM, read-out: CDK6/CCND IC50 (25-250 nM)
[2] = x = IC50 >250 nM, read-out: CDK6/CCND IC50 (>250 nM column)

- IC50 (CDK6/CCND1; >250 nM marked x, read-out: CDK6/CCND IC50 >250 nM): > 250 nM
SMILES: CC(C)S(=N)(=O)c1ccc(Nc2cc3c(C#Cc4ccc5c(c4)NC(=O)C5(C)O)nccc3cn2)cc1 (single isomer, unassigned) [Ex 292, 3-hydroxy-3-methyl-6-((7-((4-(propan-2-ylsulfonimidoyl)phenyl)amino)-2,6-naphthyridin-1-yl)ethynyl)indolin-2-one]

- IC50 (CDK1/CCNB1; 25-250 nM marked x, read-out: CDK1/CCNB IC50 25-250 nM): 25 to 250 nM
- IC50 (CDK4/CCND3; 25-250 nM marked x, read-out: CDK4/CCND IC50 25-250 nM): 25 to 250 nM
SMILES: Cc1cc(S(C)(=N)=O)ccc1Nc1cc2c(C#Cc3ccc4c(c3)NC(=O)C43CCC3)nccc2cn1 (single isomer, unassigned) [Ex 333, 6'-((7-((2-methyl-4-(S-methylsulfonimidoyl)phenyl)amino)-2,6-naphthyridin-1-yl)ethynyl)spiro[cyclobutane-1,3'-indolin]-2'-one]

- IC50 (CDK4/CCND3; x = IC50 25-250 nM, read-out: CDK4/CCND IC50 (25-250 nM)): 25 to 250 nM
SMILES: N=S(=O)(c1ccc(Nc2cc3c(C#Cc4ccc5c(c4)NC(=O)C54CC4)nccc3cn2)cc1)C1CCC1 (single isomer, unassigned) [Ex 353, 6'-((7-((4-(cyclobutanesulfonimidoyl)phenyl)amino)-2,6-naphthyridin-1-yl)ethynyl)spiro[cyclopropane-1,3'-indolin]-2'-one]

- IC50 (CDK6/CCND1; [1]): 25 to 250 nM
SMILES: N=S(=O)(c1ccc(Nc2cc3c(C#Cc4ccc5c(c4)NC(=O)C54CCC4)nccc3cn2)cc1)C1CC1 (single isomer, unassigned) [Ex 365, 6'-((7-((4-(cyclopropanesulfonimidoyl)phenyl)amino)-2,6-naphthyridin-1-yl)ethynyl)spiro[cyclobutane-1,3'-indolin]-2'-one]

- IC50 (CDK6/CCND1; [2]): > 250 nM
SMILES: CCS(=N)(=O)c1ccc(Nc2cc3c(C#Cc4ccc5c(c4)NC(=O)C54CCC4)nccc3cn2)cc1 (single isomer, unassigned) [Ex 367, 6'-((7-((4-(ethylsulfonimidoyl)phenyl)amino)-2,6-naphthyridin-1-yl)ethynyl)spiro[cyclobutane-1,3'-indolin]-2'-one]

- IC50 (CDK6/CCND1; [1]): 25 to 250 nM
SMILES: CC1(C)C(=O)Nc2cc(C#Cc3nccc4cnc(Nc5ccc(S(C)(=N)=O)cc5)cc34)ccc21 (single isomer, unassigned) [Ex 452, 3,3-dimethyl-6-((7-((4-(S-methylsulfonimidoyl)phenyl)amino)-2,6-naphthyridin-1-yl)ethynyl)indolin-2-one]

- IC50 (CDK2/CCNE1; x = IC50 <25 nM, read-out: CDK2/CCNE IC50 (<25 nM)): < 25 nM
- IC50 (CDK1/CCNB1; x = IC50 <25 nM, read-out: CDK1/CCNB IC50 (<25 nM)): < 25 nM
- IC50 (CDK6/CCND1; [1]): 25 to 250 nM
SMILES: CC1(C)C(=O)Nc2cc(C#Cc3nccc4cnc(Nc5ccc(S(=N)(=O)C6CCC6)cc5)cc34)ccc21 (single isomer, unassigned) [Ex 453, 6-((7-((4-(cyclobutanesulfonimidoyl)phenyl)amino)-2,6-naphthyridin-1-yl)ethynyl)-3,3-dimethylindolin-2-one]

- IC50 (CDK6/CCND1; [2]): > 250 nM
SMILES: CC1(CO)C(=O)Nc2cc(C#Cc3nccc4cnc(Nc5ccc(S(C)(=O)=O)cc5)cc34)ccc21 (single isomer, unassigned) [Example 373, 3-(hydroxymethyl)-3-methyl-6-((7-((4-(methylsulfonyl)phenyl)amino)-2,6-naphthyridin-1-yl)ethynyl)indolin-2-one]

More lines, now with the values behind:

SMILES: CS(=O)(=O)N1CCC(Nc2cc3c(C(=O)N4CCCC(O)C4)nccc3cn2)CC1 (racemic) [Ex 95, (3-hydroxypiperidin-1-yl)(7-((1-(methylsulfonyl)piperidin-4-yl)amino)-2,6-naphthyridin-1-yl)methanone]
- IC50 (CDK2/CCNE1; >250 nM marked x, read-out: CDK2/CCNE IC50 >250 nM): > 250 nM
- IC50 (CDK1/CCNB1; >250 nM marked x, read-out: CDK1/CCNB IC50 >250 nM): > 250 nM
- IC50 (CDK6/CCND1; <25 nM, read-out: CDK6/CCND IC50 <25 nM): < 25 nM

SMILES: CS(=N)(=O)c1ccc(Nc2cc3c(C#Cc4ccc5c(c4)NC(=O)C54CC4)nccc3cn2)cc1 (single isomer, unassigned) [Ex 359, 6'-((7-((4-(S-methylsulfonimidoyl)phenyl)amino)-2,6-naphthyridin-1-yl)ethynyl)spiro[cyclopropane-1,3'-indolin]-2'-one]
- IC50 (CDK6/CCND1; [1]): 25 to 250 nM

SMILES: CC1(C)C(=O)Nc2cc(C#Cc3nccc4cnc(Nc5ccc(S(=N)(=O)C6CCC6)cc5)cc34)ccc21 (single isomer, unassigned) [Ex 454, 6-((7-((4-(cyclobutanesulfonimidoyl)phenyl)amino)-2,6-naphthyridin-1-yl)ethynyl)-3,3-dimethylindolin-2-one]
- IC50 (CDK1/CCNB1; x = IC50 25-250 nM, read-out: CDK1/CCNB IC50 (25-250 nM)): 25 to 250 nM
- IC50 (CDK4/CCND3; x = IC50 <25 nM, read-out: CDK4/CCND IC50 (<25 nM)): < 25 nM

SMILES: CC(C)S(=N)(=O)c1ccc(Nc2cc3c(C#Cc4ccc5c(c4)NC(=O)C5(C)C)nccc3cn2)cc1 (single isomer, unassigned) [Ex 456, 3,3-dimethyl-6-((7-((4-(propan-2-ylsulfonimidoyl)phenyl)amino)-2,6-naphthyridin-1-yl)ethynyl)indolin-2-one]
- IC50 (CDK6/CCND1; [2]): > 250 nM

SMILES: CCC1(CC)C(=O)Nc2cc(C#Cc3nccc4cnc(Nc5ccc(S(=N)(=O)C6CCC6)cc5)cc34)ccc21 (single isomer, unassigned) [Example 413, 6-((7-((4-(cyclobutanesulfonimidoyl)phenyl)amino)-2,6-naphthyridin-1-yl)ethynyl)-3,3-diethylindolin-2-one]
- IC50 (CDK4/CCND3; x = IC50 >250 nM, read-out: CDK4/CCND IC50 (>250 nM column)): > 250 nM

SMILES: Cc1c(-c2nccc3cnc(Nc4ccc(S(C)(=N)=O)cc4)cc23)ccc2nn(C)cc12 (single isomer, unassigned) [Example 546, (4-((5-(2,4-dimethyl-2H-indazol-5-yl)-2,6-naphthyridin-3-yl)amino)phenyl)(imino)(methyl)-λ^6-sulfanone]
- IC50 (CDK6/CCND1; [2]): > 250 nM

SMILES: Cc1c(-c2nccc3cnc(Nc4ccc(S(=O)(=O)Nc5cc(F)cc(C(C)(C)O)c5)cc4)cc23)ccc2c1cnn2CC(C)(C)O [Ex 801, N-(3-fluoro-5-(2-hydroxypropan-2-yl)phenyl)-4-((5-(1-(2-hydroxy-2-methylpropyl)-4-methyl-1H-indazol-5-yl)-2,6-naphthyridin-3-yl)amino)benzenesulfonamide]
- IC50 (CDK2/CCNE1; <25 nM, read-out: CDK2/CCNE IC50, <25 nM): < 25 nM
- IC50 (CDK1/CCNB1; >250 nM, read-out: CDK1/CCNB IC50 >250 nM): > 250 nM
- IC50 (CDK6/CCND1; >250 nM, 1 mM ATP, read-out: CDK6/CCND IC50, >250 nM): > 250 nM
